Read-outs that look alike come from different tables or passages of the source.
What was measured:
[1] = target: p110α (PI3Kα) (Homo sapiens, UniProt P42336); assay: Determination of kinetic constants (kinact, Ki) for p110α by LanthaScreen Technology; format: binding; details: for kinact: read-out: kinact PI3Kα; for kinact/KI: read-out: kinact/Ki PI3Kα
[2] = tested on: pSer473 of PKB/Akt in SKOV3 cells; assay: In Cell Western cellular PI3K signaling and IC50 determination; format: cell-based; details: Homo sapiens, SK-OV-3; SKOV3 cells; 2 or 3 independent measurements; read-out: IC50 pPKB (S473) SKOV3
Procedure: Protein phosphorylation was detected as follows: pSer473 of PKB/Akt with rabbit polyclonal antibody from Cell Signaling Technology (CST) (#4058) by In-Cell Western assays, where 1.2×10^4 SKOV3 cells/well in 96-well plates were plated (Cell Carrier, PerkinElmer) for 24 hours (37° C., 5% CO2), as described in Ref. ^25.

[3] = Intrinsic reactivity of the inhibitors (kchem) with βME measured with HPLC; format: physicochemical; details: 1 mM inhibitor + 600 mM βME, n = 3
[4] = dissociation constant of the first reversible binding, global fitting with KinTek, read-out: Ki PI3Kα
[5] = maximum potential rate of covalent bond formation, global fitting with KinTek

Sequence of p110α (PI3Kα) (P42336 whole entry): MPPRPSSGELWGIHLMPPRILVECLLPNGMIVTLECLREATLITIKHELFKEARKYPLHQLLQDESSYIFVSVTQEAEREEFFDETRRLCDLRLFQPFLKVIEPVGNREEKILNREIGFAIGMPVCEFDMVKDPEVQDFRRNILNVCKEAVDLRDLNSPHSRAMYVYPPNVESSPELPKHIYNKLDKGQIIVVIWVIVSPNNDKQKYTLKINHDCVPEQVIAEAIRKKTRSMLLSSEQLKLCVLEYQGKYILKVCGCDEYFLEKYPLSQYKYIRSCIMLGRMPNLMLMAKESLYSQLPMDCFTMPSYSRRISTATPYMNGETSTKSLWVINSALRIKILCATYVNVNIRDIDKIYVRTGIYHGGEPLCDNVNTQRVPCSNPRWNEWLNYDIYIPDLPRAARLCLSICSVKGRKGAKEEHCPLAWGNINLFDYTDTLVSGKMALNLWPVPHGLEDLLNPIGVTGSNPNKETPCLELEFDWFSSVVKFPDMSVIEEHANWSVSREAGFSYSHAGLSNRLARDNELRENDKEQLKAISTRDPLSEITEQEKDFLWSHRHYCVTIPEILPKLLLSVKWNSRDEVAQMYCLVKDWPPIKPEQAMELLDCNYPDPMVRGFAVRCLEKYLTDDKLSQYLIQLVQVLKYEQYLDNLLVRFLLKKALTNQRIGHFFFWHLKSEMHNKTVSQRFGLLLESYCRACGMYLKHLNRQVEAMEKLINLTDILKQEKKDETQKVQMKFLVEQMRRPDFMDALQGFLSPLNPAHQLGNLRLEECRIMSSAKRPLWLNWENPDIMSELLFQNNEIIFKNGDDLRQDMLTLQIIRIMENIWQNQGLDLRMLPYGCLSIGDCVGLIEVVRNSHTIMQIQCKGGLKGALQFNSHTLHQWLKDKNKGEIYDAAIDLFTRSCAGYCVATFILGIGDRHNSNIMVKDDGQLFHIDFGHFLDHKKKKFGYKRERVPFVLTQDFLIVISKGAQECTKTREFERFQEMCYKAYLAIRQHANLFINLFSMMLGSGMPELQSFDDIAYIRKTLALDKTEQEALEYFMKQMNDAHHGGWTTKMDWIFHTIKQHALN
Sequence of p110α (PI3Kα) (P27986 whole entry partner): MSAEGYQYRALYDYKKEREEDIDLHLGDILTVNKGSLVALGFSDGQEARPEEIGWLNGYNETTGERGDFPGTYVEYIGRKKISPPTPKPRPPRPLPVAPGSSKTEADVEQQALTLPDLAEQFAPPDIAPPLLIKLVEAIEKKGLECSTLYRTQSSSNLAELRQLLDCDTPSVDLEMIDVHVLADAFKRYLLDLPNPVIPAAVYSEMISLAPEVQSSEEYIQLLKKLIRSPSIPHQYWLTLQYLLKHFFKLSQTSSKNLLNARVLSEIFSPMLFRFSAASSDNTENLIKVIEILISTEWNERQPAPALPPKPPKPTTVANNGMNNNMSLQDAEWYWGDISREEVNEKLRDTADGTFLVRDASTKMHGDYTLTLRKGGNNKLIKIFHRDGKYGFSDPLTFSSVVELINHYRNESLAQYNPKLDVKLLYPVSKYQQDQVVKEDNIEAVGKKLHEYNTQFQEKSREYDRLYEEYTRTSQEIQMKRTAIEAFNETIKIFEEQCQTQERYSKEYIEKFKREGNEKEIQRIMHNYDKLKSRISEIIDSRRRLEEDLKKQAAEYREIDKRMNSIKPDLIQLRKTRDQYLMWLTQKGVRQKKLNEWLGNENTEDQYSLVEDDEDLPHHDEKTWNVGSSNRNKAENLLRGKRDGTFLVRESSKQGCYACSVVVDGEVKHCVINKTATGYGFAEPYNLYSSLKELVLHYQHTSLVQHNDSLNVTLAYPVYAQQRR

SMILES | IC50 [2] | also measured
N#C/C(=C/C1CC1)C(=O)N1CCC(COCC(=O)N2CCN(c3nc(-c4cnc(N)nc4C(F)F)nc(N4CCOCC4)n3)CC2)CC1 [Compound 118, (Z)-2-(4-((2-(4-(4-(2-amino-4-(difluoromethyl)pyrimidin-5-yl)-6-morpholino-1,3,5-triazin-2-yl)piperazin-1-yl)-2-oxoethoxy)methyl)piperidine-1-carbonyl)-3-cyclopropylacrylonitrile] | 5.96 nM | Ki [1, 4]: 1 nM; kinact [1, 5]: 0.0108 s⁻¹; kinact/KI [1]: 1.08e+07 M⁻¹ s⁻¹
C/C=C/C(=O)N(C)CCCC(=O)N1CCN(c2nc(-c3cnc(N)nc3C(F)F)nc(N3CCOCC3)n2)CC1 [Compound 9, (E)-N-(4-(4-(4-(2-amino-4-(difluoromethyl)pyrimidin-5-yl)-6-morpholino-1,3,5-triazin-2-yl)piperazin-1-yl)-4-oxobutyl)-N-methylbut-2-enamide] |  | kchem (intrinsic reactivity of the inhibitors) [3]: 3.35e-06 M⁻¹ s⁻¹; Ki ([1]; Ki value determined after 60 min of drug incubation with PI3Kα, 2 independent measurements, read-out: Ki PI3Kα (footnote d)): 5.4 nM
CC(C)=CC(=O)CCCC(=O)N1CCN(c2nc(-c3cnc(N)nc3C(F)F)nc(N3CCOCC3)n2)CC1 [Compound 23, 1-(4-(4-(2-amino-4-(difluoromethyl)pyrimidin-5-yl)-6-morpholino-1,3,5-triazin-2-yl)piperazin-1-yl)-7-methyloct-6-ene-1,5-dione] |  | kchem (intrinsic reactivity of the inhibitors) [3]: 0.000224 M⁻¹ s⁻¹; Ki [1, 4]: 8.06 nM; kinact [1, 5]: 2.56e-05 s⁻¹; kinact/KI [1]: 3210 M⁻¹ s⁻¹
CC(C)=CC(=O)CCCC(=O)N1CC[C@H](C(=O)N2CCN(c3nc(-c4cnc(N)nc4C(F)F)nc(N4CCOCC4)n3)CC2)C1 [Compound 84, (S)-1-(3-(4-(4-(2-amino-4-(difluoromethyl)pyrimidin-5-yl)-6-morpholino-1,3,5-triazin-2-yl)piperazine-1-carbonyl)pyrrolidin-1-yl)-7-methyloct-6-ene-1,5-dione] | 11 nM | 
CC(C)=CC(=O)CCCC(=O)N1CC[C@@H](C(=O)N2CCN(c3nc(-c4cnc(N)cc4C(F)(F)F)nc(N4CCOCC4)n3)CC2)C1 [Compound 90, (R)-1-(3-(4-(4-(6-amino-4-(trifluoromethyl)pyridin-3-yl)-6-morpholino-1,3,5-triazin-2-yl)piperazine-1-carbonyl)pyrrolidin-1-yl)-7-methyloct-6-ene-1,5-dione] | 93 nM | 
CC(C)=CC(=O)NCCCC(=O)N1CCN(c2nc(-c3cnc(N)nc3C(F)F)nc(N3CCOCC3)n2)CC1 [Compound 17, N-(4-(4-(4-(2-amino-4-(difluoromethyl)pyrimidin-5-yl)-6-morpholino-1,3,5-triazin-2-yl)piperazin-1-yl)-4-oxobutyl)-3-methylbut-2-enamide] |  | kchem (intrinsic reactivity of the inhibitors) [3]: <<1.00 × 10^−7 M^−1 · s^−1
C=CC(=O)N(C)CCCC(=O)N1CCN(c2nc(-c3cnc(N)nc3C(F)F)nc(N3CCOCC3)n2)CC1 [Compound 7, N-(4-(4-(4-(2-amino-4-(difluoromethyl)pyrimidin-5-yl)-6-morpholino-1,3,5-triazin-2-yl)piperazin-1-yl)-4-oxobutyl)-N-methylacrylamide] |  | kchem (intrinsic reactivity of the inhibitors) [3]: 0.000228 M⁻¹ s⁻¹; Ki [1, 4]: 7.22 nM; kinact [1]: 6.9e-05 s⁻¹; kinact/KI [1]: 9600 M⁻¹ s⁻¹
CC(C)=CC(=O)CCC(=O)N1CC(CN2CCN(c3nc(-c4cnc(N)nc4C(F)F)nc(N4CCOCC4)n3)CC2)C1 [Compound 95, 1-(3-((4-(4-(2-amino-4-(difluoromethyl)pyrimidin-5-yl)-6-morpholino-1,3,5-triazin-2-yl)piperazin-1-yl)methyl)azetidin-1-yl)-6-methylhept-5-ene-1,4-dione] | 33 nM | 
CCC(=O)N1CCC(C(=O)NCC(=O)N2CCN(c3nc(-c4cnc(N)nc4C(F)F)nc(N4CCOCC4)n3)CC2)CC1 [Compound 44, N-(2-(4-(4-(2-amino-4-(difluoromethyl)pyrimidin-5-yl)-6-morpholino-1,3,5-triazin-2-yl)piperazin-1-yl)-2-oxoethyl)-1-propionylpiperidine-4-carboxamide] | 200 nM | Ki [1, 4]: 2.55 nM
CC(C)=CC(=O)CCCC(=O)N1CCC(C(=O)N2CCN(c3nc(-c4cnc(N)nc4C(F)F)nc(N4CCOCC4)n3)CC2)CC1 [Compound 69, 1-(4-(4-(4-(2-amino-4-(difluoromethyl)pyrimidin-5-yl)-6-morpholino-1,3,5-triazin-2-yl)piperazine-1-carbonyl)piperidin-1-yl)-7-methyloct-6-ene-1,5-dione] | 31 nM | 

Further compounds by falling IC50 [2], results first:

IC50 [2] | SMILES | also measured
891 nM | CN(C)C/C=C/C(=O)N1CCC(C(=O)N(C)CC(=O)N2CCN(c3nc(-c4cnc(N)nc4C(F)F)nc(N4CCOCC4)n3)CC2)CC1 [Compound 56, (E)-N-(2-(4-(4-(2-amino-4-(difluoromethyl)pyrimidin-5-yl)-6-morpholino-1,3,5-triazin-2-yl)piperazin-1-yl)-2-oxoethyl)-1-(4-(dimethylamino)but-2-enoyl)-N-methylpiperidine-4-carboxamide] | 
177 nM | CC(C)=CC(=O)CCCC(=O)N1CCC(CN2CCN(c3nc(-c4cnc(N)cc4C(F)(F)F)nc(N4CCOCC4)n3)CC2)CC1 [Compound 78, 1-(4-((4-(4-(6-amino-4-(trifluoromethyl)pyridin-3-yl)-6-morpholino-1,3,5-triazin-2-yl)piperazin-1-yl)methyl)piperidin-1-yl)-7-methyloct-6-ene-1,5-dione] | 
112 nM | CC(C)=CC(=O)CCCC(=O)N1CCC(C(=O)N2CCN(c3nc(-c4cnc(N)cc4C(F)(F)F)nc(N4CCOCC4)n3)CC2)CC1 [Compound 71, 1-(4-(4-(4-(6-amino-4-(trifluoromethyl)pyridin-3-yl)-6-morpholino-1,3,5-triazin-2-yl)piperazine-1-carbonyl)piperidin-1-yl)-7-methyloct-6-ene-1,5-dione] | 
73 nM | CC(C)=CC(=O)CCCC(=O)N1CC[C@H](C(=O)N2CCN(c3nc(-c4cnc(N)cc4C(F)(F)F)nc(N4CCOCC4)n3)CC2)C1 [Compound 85, (S)-1-(3-(4-(4-(6-amino-4-(trifluoromethyl)pyridin-3-yl)-6-morpholino-1,3,5-triazin-2-yl)piperazine-1-carbonyl)pyrrolidin-1-yl)-7-methyloct-6-ene-1,5-dione] | 
63 nM | CC(C)CC(=O)CCCC(=O)N1CCC(C(=O)N2CCN(c3nc(-c4cnc(N)nc4C(F)F)nc(N4CCOCC4)n3)CC2)CC1 [Compound 70, 1-(4-(4-(4-(2-amino-4-(difluoromethyl)pyrimidin-5-yl)-6-morpholino-1,3,5-triazin-2-yl)piperazine-1-carbonyl)piperidin-1-yl)-7-methyloctane-1,5-dione] | 
46 nM | CC(C)=CC(=O)CCC(=O)N1CCC(CN2CCN(c3nc(-c4cnc(N)nc4C(F)F)nc(N4CCOCC4)n3)CC2)CC1 [Compound 72, 1-(4-((4-(4-(2-amino-4-(difluoromethyl)pyrimidin-5-yl)-6-morpholino-1,3,5-triazin-2-yl)piperazin-1-yl)methyl)piperidin-1-yl)-6-methylhept-5-ene-1,4-dione] | 
34 nM | CC(C)=CC(=O)CCC(=O)N1CC(C(=O)N2CCN(c3nc(-c4cnc(N)nc4C(F)F)nc(N4CCOCC4)n3)CC2)C1 [Compound 92, 1-(3-(4-(4-(2-amino-4-(difluoromethyl)pyrimidin-5-yl)-6-morpholino-1,3,5-triazin-2-yl)piperazine-1-carbonyl)azetidin-1-yl)-6-methylhept-5-ene-1,4-dione] | 
24 nM | CC(C)=CC(=O)CCC(=O)N1CC[C@H](C(=O)N2CCN(c3nc(-c4cnc(N)nc4C(F)F)nc(N4CCOCC4)n3)CC2)C1 [Compound 81, (S)-1-(3-(4-(4-(2-amino-4-(difluoromethyl)pyrimidin-5-yl)-6-morpholino-1,3,5-triazin-2-yl)piperazine-1-carbonyl)pyrrolidin-1-yl)-6-methylhept-5-ene-1,4-dione] | 
17 nM | CC(C)=CC(=O)CCCC(=O)N1CC(CN2CCN(c3nc(-c4cnc(N)nc4C(F)F)nc(N4CCOCC4)n3)CC2)C1 [Compound 97, 1-(3-((4-(4-(2-amino-4-(difluoromethyl)pyrimidin-5-yl)-6-morpholino-1,3,5-triazin-2-yl)piperazin-1-yl)methyl)azetidin-1-yl)-7-methyloct-6-ene-1,5-dione] | 
17 nM | CC(C)=CC(=O)CCC(=O)N1CC[C@@H](C(=O)N2CCN(c3nc(-c4cnc(N)nc4C(F)F)nc(N4CCOCC4)n3)CC2)C1 [Compound 86, (R)-1-(3-(4-(4-(2-amino-4-(difluoromethyl)pyrimidin-5-yl)-6-morpholino-1,3,5-triazin-2-yl)piperazine-1-carbonyl)pyrrolidin-1-yl)-6-methylhept-5-ene-1,4-dione] | 
12 nM | CC(C)=CC(=O)CCCC(=O)N1CC(C(=O)N2CCN(c3nc(-c4cnc(N)nc4C(F)F)nc(N4CCOCC4)n3)CC2)C1 [Compound 94, 1-(3-(4-(4-(2-amino-4-(difluoromethyl)pyrimidin-5-yl)-6-morpholino-1,3,5-triazin-2-yl)piperazine-1-carbonyl)azetidin-1-yl)-7-methyloct-6-ene-1,5-dione] | 
6.7 nM | CC(C)=CC(=O)CCCC(=O)N1CC[C@@H](C(=O)N2CCN(c3nc(-c4cnc(N)nc4C(F)F)nc(N4CCOCC4)n3)CC2)C1 [Compound 89, (R)-1-(3-(4-(4-(2-amino-4-(difluoromethyl)pyrimidin-5-yl)-6-morpholino-1,3,5-triazin-2-yl)piperazine-1-carbonyl)pyrrolidin-1-yl)-7-methyloct-6-ene-1,5-dione] | 

— patent publication US20240217960A1, “TRIAZINE DERIVATIVE AS COVALENT INHIBITORS OF PI3K” (UNIVERSITÄT BASEL, priority 2021, published 2024)
